Reference: PubChem BioAssay AID1117319 (Southern Research Institute, 2015)
Results filed as inconclusive are left out.

Target: Virion infectivity factor (Human immunodeficiency virus type 1 group M subtype B (isolate BH10)) + Virion infectivity factor (Human immunodeficiency virus type 1 group M subtype B (isolate BRU/LAI)) + Virion infectivity factor (Human immunodeficiency virus type 1 group M subtype B (isolate PCV12)) + Virion infectivity factor (Human immunodeficiency virus type 1 group M subtype B (isolate HXB2)) + DNA dC->dU-editing enzyme APOBEC-3G (Homo sapiens) (UniProt P69720+P69721+P69722+P69723+Q9HC16)
Experiment: inhibitors of Vif binding to APOBEC3G peptide, primary screen, biochemical, TR-FRET, GST-Vif 1-94, biotin-A3G peptide, dose response retest (AID 1117319);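 note: Vif residues 1-94 fused to GST binding biotinylated APOBEC3G peptide 110-148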

SMILES	IC50 [µM]
CCNc1ccc(Br)cc(C(=O)/C=C/c2ccc3c(c2)OCO3)c1=O	24.7
COc1ccc(NC(=O)/C(C#N)=C/c2ccc(Br)o2)cc1	14.7
CCOc1cc(N2CCOCC2)c(OCC)cc1NS(=O)(=O)c1ccc(Cl)s1	3.22
COC(=O)c1ccc(=O)c2nc3/c(=C/O)c(O)cc(=O)c3[nH]c12	0.35
CCCCC(=O)NC(=S)Nc1cc(C(=O)O)ccc1Cl	16
C[C@H]1c2cccc(O)c2C(O)=C2C(=O)[C@]3(O)C(O)=C(C(N)=O)C(=O)[C@@H](N(C)C)[C@@H]3[C@@H](O)[C@@H]21	13.6
CC(C)Nc1ccc(Nc2ccccc2)cc1	9.18
CCOC(=O)Cc1cc(=O)n2[nH]c(C)cc2n1	75.3
Cn1cccc1/C=C1/C(=O)NC(=O)N(Cc2ccccc2)C1=O	3.33
COCCNC(=O)COC(=O)c1[nH]c(C)c(C(C)=O)c1C	9.88
O=C1NC(=S)S/C1=C\c1ccc(SCc2ccco2)o1	0.81
Cc1ccc(NC(=O)CN(C)C(=O)c2cccc(-n3cccc3)c2)cc1	4.56
O=C(NNC(=O)c1ccccc1O)c1cc2ccccc2o1	16.5
O=C(NCc1ccco1)c1cc(-c2cccc(Cl)c2)on1	36.9
CCC(C)(C)n1nnnc1C(c1cc2cc(C)ccc2[nH]c1=O)N1CCCc2ccccc21 (centres undefined)	93.5
O=C(/C=C/c1ccc(O)c(O)c1)OC1C(O)CC(OC(=O)/C=C/c2ccc(O)c(O)c2)(C(=O)O)CC1O (centres undefined)	16.2
O=C(CCCCCN1C(=O)CCC1=O)Nc1ccc(Cl)c(C(F)(F)F)c1	3.93
CCc1ccc(S(=O)(=O)/N=C2\C=CC(=O)c3ccccc32)cc1	8.1
O=C1CCCC(O)=C1N=Nc1ccc(S(=O)(=O)N2CCOCC2)cc1	6.66
Cc1ccc(-c2cc(-c3ccc4c(c3)OCO4)c(C#N)c(N)n2)o1	7.11
Nc1ccccc1NC1=CC(=O)CC(c2ccco2)C1 (centres undefined)	49.4
Cc1cccc(C)c1NC(=O)CSc1nnc(-c2ccco2)c(-c2ccco2)n1	2.05

SMILES	IC50 [µM]
CCC(C)Cn1c(O)cc2nn(-c3nc4ccccc4s3)c(=O)c-2c1C (centres undefined)	2.65
O=[N+]([O-])c1cc2oc3c(c2c(C=NCc2ccncc2)c1O)CCCC3	4.52
Cc1ccc(-c2ccc(CCC(=O)O)n2NC(N)=S)cc1	11.5
CC(C)(C)C(=O)OCc1nc(-c2ccc(O)c(O)c2)cs1	17.1
O=C1CC(=O)N(Cc2ccco2)C(=S)N1	2.21
COc1ccc(C(=O)N/N=C/C23CC[C@@H](O)CC2(O)CC[C@@H]2[C@@H]3CCC3(C)C(C4=CC(=O)OC4)CCC23O)cc1 (some centres undefined)	86.3
O=C(NN1C(=O)/C(=C/C=C/c2ccco2)SC1=S)c1ccccc1O	1.93
CCOC(=O)c1cc([N+](=O)[O-])cc([N+](=O)[O-])c1Sc1ncnc2nc[nH]c12	69.6
CCCCn1c(O)c(C(CC)=NCCN2CCCCC2)c(=O)[nH]c1=O	4.09
N#CC1=C(Nc2ccccc2)SC=C(c2ccc(Br)cc2)N=C1N1CCOCC1	97.1
Cc1c(C)n(C(=O)CSc2nc3ccccc3[nH]2)c2ccccc12	39.7
CCN(CC)Cc1cc(Nc2c3ccccc3nc3c4ccccc4n(C)c23)cc(CN(CC)CC)c1O	10.9
O=C(Nc1nc(-c2ccco2)c(-c2ccco2)s1)C1CCC1	1.93
Cc1cc(C(=O)COC(=O)c2cc(O)c3ccccc3c2O)c(C)n1CC1CCCO1 (centres undefined)	6.92
O=C(COC(=O)c1cc(-c2ccco2)nc2ccccc12)NCc1ccc2c(c1)OCO2	12.5
O=C1NC(=O)N(Cc2ccco2)C(=O)/C1=C/C=C/c1ccco1	0.91
CC1=CC(=Nc2c(C)n(C)n(-c3ccccc3)c2=O)C=CC1=O	5.02
CCOC(=O)C(=O)NCc1ccc(/C=C2/N=C(C)C(C(=O)OCC)=C2O)o1	6.18
CN(C)S(=O)(=O)c1cccc(NC(=S)N/N=C/c2ccc(O)c(O)c2O)c1	1.88
O=C1c2c(O)ccc(O)c2C(=O)c2c(NCCNCCO)ccc(NCCNCCO)c21	7.96
O=C1NC(=Nc2ccc(O)cc2)S/C1=C\C=C\c1ccco1	5.1
CCNC(=O)COC(=O)c1cc(-c2ccco2)nc2ccccc12	3.93

SMILES	IC50 [µM]
O=C1/C(=C/c2ccco2)Oc2c1ccc(O)c2CN1CCCCC1	1.36
COc1ccccc1NC(=O)c1cc2ccccc2o/c1=N\O	67.4
Cc1ccc(C)n1-c1sccc1C(=O)O	1.92
C=CCN(CC=C)C(=S)NC(=O)c1ccc([N+](=O)[O-])cc1	66.8
O=C(c1cccc(-n2cccc2)c1)N1CCN(S(=O)(=O)c2ccccc2)CC1	17.3
COC(=O)C1=C(C)N(Cc2ccccc2)C(=O)/C1=C\c1ccco1	11.2
Cc1c(F)cccc1NC(=O)CCCCCC1NC(=O)NC1C (centres undefined)	0.78
CSc1oc(-c2ccco2)nc1S(=O)(=O)c1ccccc1	31.5
O=C(CSc1nc2ccccc2n1CCc1ccccc1)c1ccc(O)c(O)c1	2.14
O=C(Cn1cnc2c(nnn2Cc2ccc(F)cc2)c1=O)NCc1ccco1	94.6
COc1cc2c(cc1OC)C(=O)C(Br)CC2 (centres undefined)	1.48
Cc1ccc(NC(=O)CN2C(=O)N/C(=C/c3ccco3)C2=O)cc1	2
N#C/C(C(N)=O)=c1/ccc2c(c1)N1C3=C(CCCC3)CC3CCCCC31N=2 (centres undefined)	28.2
Nc1ccc(Nc2ccccc2)c(S(=O)(=O)O)c1	5.26
CCC1=NN2C(=N)/C(=C\c3cccn3-c3cccc(Cl)c3)C(=O)N=C2S1	94.9
O=[N+]([O-])c1cc(CN2CCOCC2)c2cccnc2c1O	4.07
CC1=CN2C(=N)/C(=C/c3ccc([N+](=O)[O-])o3)C(=O)N=C2S1	2.91
CCN1CCC(=NNC(=O)CC23CC4CC(CC(C4)C2)C3)CC1	97.5
O=C(NCCc1c[nH]c2ccccc12)c1ccc(S(=O)(=O)NCc2ccco2)cc1	33.3
COc1cc(NC(=O)c2cc3nc(C)cc(C)n3n2)c(OC)cc1Cl	92.1
CC[C@H](C)/C=C(C)/C=C/C1=CC2=CC(=O)[C@]3(C)OC(=O)[C@@H](C(C)=O)[C@@H]3C2=CO1	13
COc1cccc(C2C(C#N)=C(N)OC3=C2C(=O)CC(c2ccco2)C3)c1OCc1ccc(F)cc1 (centres undefined)	7.82

SMILES	IC50 [µM]
CC(CNc1ccccc1O)C(=O)O (centres undefined)	6.17
O=C1NC(=O)N(c2ccc(Cl)cc2)C(=O)/C1=C\c1ccc(Sc2nc3ccccc3[nH]2)o1	11.7
O=C1CCC/C(=N\NC(=O)c2ccc(COc3cccc4cccnc34)cc2)C1	17.1
O=C(COc1ccc(Cl)cc1)N1CCN(S(=O)(=O)c2ccc(Cl)cc2)CC1	50.7
C=C(C)C(=O)Nc1cccc(C2=NOC3(C2)C[C@H](C(N)=O)N(C(=O)COc2ccc(Cl)cc2)C3)c1 (some centres undefined)	1.28
CCN(C(=O)CN1CCN(c2ccc(O)cc2)CC1)c1c(N)n(Cc2ccccc2)c(=O)[nH]c1=O	16.4
CN(C)[C@@H]1C(=O)C(C(=O)NCN2CCCC2)=C(O)[C@@]2(O)C(=O)C3=C(O)c4c(O)cccc4[C@@](C)(O)C3CC12 (some centres undefined)	0.33
COc1ccc(C(=O)n2nc(-c3ccc(Cl)cc3)nc2N)cc1OC	70.9
O=C(CN1CCN(S(=O)(=O)c2ccc(F)cc2)CC1)c1ccc(O)c(O)c1	20.1
Cc1ccc2c(c1C)NC(C(=O)O)C1CC=CC21 (centres undefined)	0.59
O=C1/C(=C\c2ccco2)CCC/C1=C\c1ccco1	3.05
CCc1cc(C=NC2CCCCC2)c(O)s1	77.7
CCOc1ccc(CNc2ccc(N3CCCC3)cc2)cc1	6.59
Cc1ccc(C(=O)Nc2ccc(O)c(C(=O)O)c2)o1	3.87
CCCSC1=N/C(=C\c2ccc([N+](=O)[O-])o2)C(=O)S1	12.9
CC(C)CC(NC(=O)/C(=C/c1ccco1)NC(=O)c1ccc(Br)o1)C(=O)O (centres undefined)	93.5
CCOC(=O)C(C(=O)OCC)c1cc(Br)c2noc3c2c1C(=O)c1ccccc1-3	2.45
Nc1ccc(Oc2ncccn2)cc1	24.4
NC(=O)c1cc(N)ccc1N1CCCC1	1.12
Cc1ccc(N2CCN(c3ccc(C)cc3)C2c2ccccn2)cc1	75.8
c1ccc2c3c([nH]c2c1)CNCC3	84.2
COc1ccccc1-n1c(SCC(=O)NCc2ccc3c(c2)OCO3)nc2cc([N+](=O)[O-])ccc21	22.7

SMILES	IC50 [µM]
O=c1cc(O)n(-c2ccc(F)cc2)c(=S)[nH]1	51.5
O=C(COC(=O)c1c2c(nc3ccccc13)/C(=C\c1ccco1)CC2)NC1CCCC1	3.67
Cc1cc(-c2nc3c4c5c(sc4[nH]c(=O)n3n2)CCC5)c(C)o1	0.69
CC(C)CNC1=CC(=O)CC(c2ccco2)C1 (centres undefined)	3.75
O=C(NCc1ccccc1)c1ccc2nc(-c3ccco3)c(-c3ccco3)nc2c1	0.48
C=CCn1c(C)c(C(C)=O)c(N2CCN(c3ccccc3)CC2)nc1=S	8.23
N#CC(C(=O)NCc1ccco1)c1nc2ccccc2nc1N1CCOCC1 (centres undefined)	51.7
Cc1cccc(C)c1NC(=O)c1ccc(-n2cnnn2)cc1	35.8
CCOC(=O)C1=C(N)n2c(s/c(=C\c3ccco3)c2=O)=C(C(=O)OC(C)C)C1c1ccco1 (centres undefined)	1.23
CC1(C)CC2(CC(c3ccccc3F)c3ccc(O)c(O)c3O2)NC(=S)N1 (centres undefined)	13.7
CCCCCC#CCC#CCC#CCC#CCCCC(=O)O	0.86
CC(=O)OCCCNc1cc(Sc2nc3ccccc3s2)c2nonc2c1[N+](=O)[O-]	53.1
CCOC(=O)N1CCN(C(=O)c2ccc3c(SCC(=O)O)c4c(nc3c2)CCC4)CC1	1.9
CNCc1ccccc1Sc1cc(O)ccc1O	3.46
Cc1nc2ncccn2c1-c1csc(NCc2ccco2)n1	1.22
O=C1CCC/C1=C/Nc1ccc2c(c1)OCO2	2.09
Clc1ccc2nc3ccccn3c2c1	98.3
O=C(CSc1nc(-c2ccco2)cc(C(F)(F)F)n1)N1CCc2ccccc2C1	22.8
N=C1S/C(=C\c2ccco2)C(=O)N1c1ccc2c(c1)OCO2	9.26
Cc1n[nH]c(=S)n(NC(=O)/C=C/C(=O)Nn2c(=S)[nH]nc(C)c2=O)c1=O	2.38
O=C(c1coc(=O)c(Br)c1)N1CCCc2ccccc21	24.3
